Test results from PMC12102759 (Protein Science : A Publication of the Protein Society, 2025).

Each substance was assayed on G3BP1 NFT2. Settings: library DMS-BM; bait G3BP1 NFT2; prey CAPRIN1; AQMQGPYNFIQDSM(averaged): mean of the two overlapping peptides over the shared positions.
Format: binding, human

In order of falling “DMS position-specific score (PSSM value) per amino-acid substitution, averaged” value:
1. AQMQGPYNFIQDSM(averaged) M3V (AQVQGPYNFIQDSM)  0.3519
2. AQMQGPYNFIQDSM(averaged) M14M  0.2883
3. AQMQGPYNFIQDSM(averaged) M14E (AQMQGPYNFIQDSE)  0.2115
4. AQMQGPYNFIQDSM(averaged) M14F (AQMQGPYNFIQDSF)  0.1772
5. AQMQGPYNFIQDSM(averaged) I10W (AQMQGPYNFWQDSM)  0.1749
6. AQMQGPYNFIQDSM(averaged) M3M  0.1084
7. AQMQGPYNFIQDSM(averaged) M3D (AQDQGPYNFIQDSM)  0.0976
8. AQMQGPYNFIQDSM(averaged) N8N  0.08785
9. AQMQGPYNFIQDSM(averaged) M3W (AQWQGPYNFIQDSM)  0.07564
10. AQMQGPYNFIQDSM(averaged) N8I (AQMQGPYIFIQDSM)  0.06952
11. AQMQGPYNFIQDSM(averaged) M14Q (AQMQGPYNFIQDSQ)  0.06683
12. AQMQGPYNFIQDSM(averaged) M14A (AQMQGPYNFIQDSA)  0.06493
13. AQMQGPYNFIQDSM(averaged) N8A (AQMQGPYAFIQDSM)  0.06427
14. AQMQGPYNFIQDSM(averaged) M3Q (AQQQGPYNFIQDSM)  0.0638
15. AQMQGPYNFIQDSM(averaged) M14W (AQMQGPYNFIQDSW)  0.06336
16. AQMQGPYNFIQDSM(averaged) N8L (AQMQGPYLFIQDSM)  0.06185
17. AQMQGPYNFIQDSM(averaged) M3F (AQFQGPYNFIQDSM)  0.0581
18. AQMQGPYNFIQDSM(averaged) M3T (AQTQGPYNFIQDSM)  0.05572
19. AQMQGPYNFIQDSM(averaged) N8D (AQMQGPYDFIQDSM)  0.05276
20. AQMQGPYNFIQDSM(averaged) M3L (AQLQGPYNFIQDSM)  0.03704
21. AQMQGPYNFIQDSM(averaged) M14D (AQMQGPYNFIQDSD)  0.036
22. AQMQGPYNFIQDSM(averaged) M3I (AQIQGPYNFIQDSM)  0.03359
23. AQMQGPYNFIQDSM(averaged) M3E (AQEQGPYNFIQDSM)  0.03003
24. AQMQGPYNFIQDSM(averaged) M3G (AQGQGPYNFIQDSM)  0.02919
25. AQMQGPYNFIQDSM(averaged) M14I (AQMQGPYNFIQDSI)  0.02696
26. AQMQGPYNFIQDSM(averaged) N8H (AQMQGPYHFIQDSM)  0.02395
27. AQMQGPYNFIQDSM(averaged) M14V (AQMQGPYNFIQDSV)  0.02285
28. AQMQGPYNFIQDSM(averaged) M3H (AQHQGPYNFIQDSM)  0.02176
29. AQMQGPYNFIQDSM(averaged) I10T (AQMQGPYNFTQDSM)  0.01974
30. AQMQGPYNFIQDSM(averaged) N8M (AQMQGPYMFIQDSM)  0.01948
31. AQMQGPYNFIQDSM(averaged) I10Q (AQMQGPYNFQQDSM)  0.01591
32. AQMQGPYNFIQDSM(averaged) M3Y (AQYQGPYNFIQDSM)  0.01355
33. AQMQGPYNFIQDSM(averaged) M14Y (AQMQGPYNFIQDSY)  0.01132
34. AQMQGPYNFIQDSM(averaged) N8E (AQMQGPYEFIQDSM)  0.01047
35. AQMQGPYNFIQDSM(averaged) N8F (AQMQGPYFFIQDSM)  0.00737
36. AQMQGPYNFIQDSM(averaged) M3A (AQAQGPYNFIQDSM)  0.007318
37. AQMQGPYNFIQDSM(averaged) N8K (AQMQGPYKFIQDSM)  0.007096
38. AQMQGPYNFIQDSM(averaged) M14N (AQMQGPYNFIQDSN)  0.007055
39. AQMQGPYNFIQDSM(averaged) M3K (AQKQGPYNFIQDSM)  0.006729
40. AQMQGPYNFIQDSM(averaged) M14L (AQMQGPYNFIQDSL)  0.006578
41. AQMQGPYNFIQDSM(averaged) M14T (AQMQGPYNFIQDST)  0.005834
42. AQMQGPYNFIQDSM(averaged) I10V (AQMQGPYNFVQDSM)  0.004849
43. AQMQGPYNFIQDSM(averaged) M14H (AQMQGPYNFIQDSH)  0.004419
44. AQMQGPYNFIQDSM(averaged) I10Y (AQMQGPYNFYQDSM)  0.003704
45. AQMQGPYNFIQDSM(averaged) M3R (AQRQGPYNFIQDSM)  0.003692
46. AQMQGPYNFIQDSM(averaged) M14R (AQMQGPYNFIQDSR)  0.003652
47. AQMQGPYNFIQDSM(averaged) M3S (AQSQGPYNFIQDSM)  0.002665
48. AQMQGPYNFIQDSM(averaged) M3N (AQNQGPYNFIQDSM)  0.00226
49. AQMQGPYNFIQDSM(averaged) M14S (AQMQGPYNFIQDSS)  0.001956
50. AQMQGPYNFIQDSM(averaged) N8G (AQMQGPYGFIQDSM)  0.001288
51. AQMQGPYNFIQDSM(averaged) I10R (AQMQGPYNFRQDSM)  0.001261
52. AQMQGPYNFIQDSM(averaged) M3P (AQPQGPYNFIQDSM)  0.0009459
53. AQMQGPYNFIQDSM(averaged) I10S (AQMQGPYNFSQDSM)  0.0008082
54. AQMQGPYNFIQDSM(averaged) M14K (AQMQGPYNFIQDSK)  0.0006833
55. AQMQGPYNFIQDSM(averaged) M14G (AQMQGPYNFIQDSG)  0.000626
56. AQMQGPYNFIQDSM(averaged) I10N (AQMQGPYNFNQDSM)  0.0004895
57. AQMQGPYNFIQDSM(averaged) I10P (AQMQGPYNFPQDSM)  0
58. AQMQGPYNFIQDSM(averaged) M14P (AQMQGPYNFIQDSP)  0
